Reference: patent US9486423B2, “Redox-directed chelators targeting intracellular metal ions” (THE ARIZONA BOARD OF REGENTS ON BEHALF OF THE UNIVERSITY OF …, priority 2014, dated 2016)
Blank lines part the entries; values can stand above or below the molecule they belong to.

What was measured:
[1] = system: MDA-MB-231 (breast adenocarcinoma) cells; experiment: MTT assay of cell viability, MDA-MB-231; type: cell-based; conditions: in the presence of human holotransferrin
Experimental: (§1) The present inventors have also investigated the antiproliferative activity of series of pro-chelators and chelators of the invention towards human cell lines. MTT assays of cell viability (Table 1) were performed on two cancer cell lines, neuroepithelioma SK-N-MC and breast adenocarcinoma MDA-MB-231, which are well studied in the context of iron deprivation. The established antiproliferative iron chelator DFO was used as a control and its toxicity profiles compared well to literature ones for these cell lines. Viability measurements were conducted in the presence of human holotransferrin in order to load intracellular iron pools and assess antiproliferative activity related to intracellular iron deprivation.
(§2) MDA-MB-231 (ATCC® HTB-26™) breast adenocarcinoma cells and SK-N-MC (ATCC® HTB-10™) neuroepithelioma cells were cultured under a 5% CO2 humidified atmosphere at 37° C. in Eagle's Minimal Essential Medium (EMEM) supplemented with 10% fetal bovine serum (FBS), glutamine (2 mM), sodium pyruvate (1 mM), sodium bicarbonate ([…]), penicillin (100 units/mL), streptomycin (100 μg/mL) and 1.25 μM (1 mg/10 mL) human holo-transferrin (Aldrich) prior to use. Jurkat T lymphocytes (ATCC® T1B-152™) were cultured at 37° C. under a 5% CO2 humidified atmosphere in RPMI 1640 media supplemented with 10% FBS, penicillin (5 mg/ml) and streptomycin (1 mg/ml), and maintained at a density lower than 2.0×10^6 cells/mL.

[2] = system: SK-N-MC (neuroepithelioma) cells; experiment: MTT assay of cell viability, SK-N-MC; type: cell-based; conditions: 48 h exposure, in the presence of human holotransferrin
Experimental: as §1, §2

Jurkat cells = experiment: Calcein-AM fluorescence assay of intracellular iron binding; type: cell-based, human; conditions: suspended Jurkat cells loaded with calcein; SIH added after (TC1-S)2
Description: FIG. 5 is a graph showing displacement of paramagnetic ions and restoration of calcein fluorescence by addition of chelators (TC1-S)2 and SIH at the indicated times and final concentrations in suspended Jurkat cell cultures. Fluorescence intensity at 517 nm (excitation, 488 nm) is plotted as the difference from the initial values before any addition. DMSO concentration was kept constant in all solutions.
Intracellular iron binding was first examined using calcein-AM, the acetoxymethyl ester of a fluorescein-based sensor of metal ions in biological specimens. Trapped intracellularly upon hydrolysis of the ester groups by esterases, calcein coordinates iron and possibly other (far less abundant) cations (e.g., Cu(II) and Zn(II)). Calcein stabilizes ferric iron coordination and this paramagnetic ion quenches considerably its fluorescence emission.

MDA-MB-231 cells [3] = experiment: Effect of NAC supplementation on toxicity (viability assay); type: cell-based, human; conditions: 10.0 μM compound, 48 h, after 6 h NAC
Experimental: FIG. 4 is a bar graph showing the effect of N-acetyl cystein (NAC) supplementation on the toxicity of DFO (10 μM) and (TC1-S)2 (10 μM). MDA-MB-231 cells were incubated with NAC for 6 h before treatment with DFO (10.0 μM) or (TC1-S)2 (10.0 μM) for 48 h. Percent viability is expressed relative to control treated with DMSO and averaged over three experiments±percent standard deviation.
The control of reducing conditions employed in vitro in the experiments summarized above cannot be achieved in cell culture; nevertheless, the intracellular concentration of GSH can be increased by supplementing with N-acetyl cysteine (NAC), a precursor required for GSH biosynthesis. […] FIG. 4.

[4] = Cyclic voltammetry in DMF; type: physicochemical; conditions: glassy carbon electrode
Description: FIG. 10 is a cyclic voltammograms of disulfides 1a-c at a glassy carbon electrode in DMF with (n-Bu4N)(PF6) as supporting electrolyte. Data collected at a 100 mVS^−1 sweep rate using Ag/AgNO3 reference electrode and a platinum wire auxiliary electrode.
The reduction of disulfides 1a-c was investigated by electrochemical methods in N,N-dimethylformamide. FIG. 10. The collected cyclic voltammograms present irreversible cathodic peaks that are characteristic of aromatic disulfide reduction and correspond to the two-electron reductive process leading to formation of two thiolate ions. Consistent with reported electronic effects of substituents in aromatic disulfides, peak reduction potentials of compounds 1a-c vary considerably with the substitution on the thiosemicarbazone unit. […] These experiments established that electronic effects of the partially conjugated chelating units modulate the thermodynamic drive to reduction of disulfide constructs. Similarly, it is expected that an electron withdrawing group substituent on the phenyl ring itself (e.g., R^3 and/or R^4 in Formula I) will also result in lower reduction potential. As used herein, the term “electron withdrawing group” refers to any substituent that draws electron density away from a given center (e.g., disulfide or thiol group in compounds 1a-c and 2a-c, respectively). […]

[5] = Reduction by GSH monitored by UV-visible absorption spectroscopy; type: physicochemical; conditions: GSH 11.0 mM
Experimental: FIG. 2 is a graph showing reduction of (TC1-S)2 (9.0 μM) by GSH (11.0 mM) as monitored by UV-visible absorption spectroscopy in buffered aqueous solution (50 mM PIPES, pH 7.4) at 25° C. Spectral changes during the reduction of (TC1-S)2 (Line 2, […]) to TC1-SH (Line 1) by GSH (11.0 mM). The reaction goes to substantial completion within 2 h.
The reduction of (TC1-S)2 can be monitored in vitro by UV-visible absorption spectroscopy. FIG. 2.

MDA-MB-231 cells [6] = experiment: Intracellular ROS generation, oxidation of DCFH2 to DCF; type: cell-based, human; conditions: 30 min incubation, compared to H2O2 (100 μM) positive control
Experimental: FIG. 8 is a bar graph showing intracellular generation of ROS monitored through the oxidation of DCFH2 to fluorescent DCF (ex: 485 nm, em: 528 nm). MDA-MB-231 cells were treated with DCFH2-DA (10 μM, 10 min), washed and then incubated with test compounds (concentrations as shown, 30 min). H2O2 (100 μM) was employed as a positive control. Measurements were conducted in triplicate and reported as average±standard deviation.
The in-vitro results above were confirmed in cultures of MBA-MD-231 breast carcinoma cells using a fluorescence-based assay of ROS generation. Added to the growth media, cell-permeable dihydrodichlorofluorescein diacetate (DCFH2-DA) was hydrolized intracellularly to trap the probe dihydrodichlorofluorescein (DCFH2), which was oxidized by several ROS to give the bright fluorescent product dichlorofluorescein. […] FIG. 8.

[7] = system: ribonucleotide reductase (RNR) tyrosyl radical in Jurkat cells; experiment: Whole-cell EPR of the tyrosyl radical of ribonucleotide reductase; type: cell-based, human; conditions: 50 μM
Experimental: FIG. […] Experimental conditions: microwave frequency, 9.338 GHz; microwave power, 2 mW; magnetic field modulation amplitude, 0.5 mT; temperature, 30° K.
EPR data were also used to examine the effect of chelation system on the tyrosyl radical that characterizes the active site of ribonucleotide reductase (RNR), the iron-dependent enzyme that is believed to be essential in DNA biosynthesis.

[8] = system: MRC-5 (normal lung fibroblast) cells; experiment: MTT assay of cell viability, MRC-5; type: cell-based, human; conditions: for IC50: MTT assay, 72 h exposure; for toxicity in normal lung fibroblasts (comparison): normal cells
Experimental: as §1
Because normal cells divide at a lower rate, MTT assays were performed after exposures of 48 h and also 72 h (Table 1).

[9] = Equilibration in GSH/GSSG redox buffer solutions at different half-cell potentials; type: physicochemical; conditions: half-cell potentials of −220 mV or lower (vs SHE); 12.5 μM disulfide, 11-13 mM total glutathione, 2 h
Experimental: FIG. 3 is a graph showing the fraction of reduced chelator TC1-SH obtained from UV-visible absorption data in GSH/GSSG redox buffer solutions at different half-cell potentials. Total ([GSH]+[GSSG]) was maintained at 11-13 mM, whereas initial [(TC1-S)2] was 12.5 μM. Samples were allowed to equilibrate for 2 h. Data points are plotted as average of triplicate measurements±standard deviation.
In order to estimate the speciation of the prochelator/chelator system in solutions containing glutathione levels reflecting biologically relevant conditions, disulfide (TC1-S)2 was allowed to equilibrate in a series of redox buffer mixtures. The half-cell potentials for the solutions were calculated based on the concentrations of GSH and GSSG and they were selected to include values from those typically associated to proliferating cells (−240 mV vs SHE) to those found in necrotic cells (−180 mV). […] FIG. 3. As such, in this model of intracellular conditions containing micromolar chelation system and millimolar glutathione buffer, the chelation system after equilibration was found prevalently in its reduced iron-binding form at glutathione half-cell potentials that are characteristic of proliferating and malignant cells.

[10] = Iron coordination with Fe(BF4)2.6H2O; type: binding; conditions: organic solvents and buffered aqueous solutions
Description: Consistent with the modest coordinating ability of disulfide linkages in general and the conformational restraints they impose on the joint thiosemicarbazone units in this case, disulfides 1a-c behave as masked pro-chelators of low iron coordinating ability.
Conversely, thiols 2a-c react readily with Fe(BF4)2.6H2O in organic solvents and in buffered aqueous solutions. From reactions in THF, iron complexes 3a-c were isolated by crystallization and characterized by high-resolution mass spectrometry and elemental analysis. Complexes 3a (FIG. 11) and 3b were also characterized by single crystal X-ray diffraction analysis.

[11] = clinical trials terminated; cited from earlier work

SMILES: NC(=S)NN=Cc1ncccc1N [Compound 3-AP, 3-Aminopyridine-2-carboxaldehyde thiosemicarbazone]
adverse side effects [11]: methemoglobinemia

SMILES: CC(=O)N(O)CCCCCNC(=O)CCC(=O)N(O)CCCCCNC(=O)CCC(=O)N(O)CCCCCN [DFO, desferrioxamine, reference compound]
IC50 ([1]; Homo sapiens, MDA-MB-231, 48 h, 48 h exposure): 17 µM | IC50 ([1]; MDA-MB-231, 48 h exposure): 17.05 ± 0.05 µM | effect of increasing NAC on toxicity (MDA-MB-231 cells [3]): not affected significantly | IC50 ([2]; SK-N-MC): 10.02 ± 0.06 µM | RNR tyrosyl radical EPR signal ([7]; 3 h): loss of signal | IC50 ([8]; Homo sapiens, MRC5): 8.04 ± 0.03 µM

SMILES: O=C(NN=Cc1ccccc1O)c1ccncc1 [SIH, salicylaldehyde isonicotinoyl hydrazone, reference compound]
calcein fluorescence intensity (Jurkat cells): further increased fluorescence intensity

More lines, main results first:

IC50 ([1]; 48 h exposure): 22.07 ± 0.04 µM | IC50 [2]: 8.91 ± 0.09 µM
SMILES: NC(=S)NN=Cc1ccccc1SSc1ccccc1C=NNC(N)=S [Compound 1a]

IC50 ([1]; 48 h exposure): 4.59 ± 0.06 µM | conversion of disulfide to thiol ([5]; neutral buffered aqueous solution, 9.0 μM): converted substantially quantitatively | IC50 [2]: 6.81 ± 0.17 µM | estimated equilibrium percentage of thiol [9]: greater than 80%
SMILES: S=C(NN=Cc1ccccc1SSc1ccccc1C=NNC(=S)Nc1ccccc1)Nc1ccccc1 [Compound 1c]
calcein fluorescence intensity (Jurkat cells): concentration-dependent increase in fluorescence intensity | IC50 ([1]; 48 h exposure, listed as (TC1-S)2): 4.6 µM | effect of increasing NAC on toxicity (MDA-MB-231 cells [3]): more susceptible | ease of disulfide reduction (peak reduction potential) [4]: easier to reduce compared to analogues 1a and 1b | time to substantial completion of reduction to TC1-SH ([5]; 9.0 μM disulfide, 50 mM PIPES, pH 7.4, 25° C.): ≤ 2 h | intracellular generation of ROS (DCF fluorescence) (MDA-MB-231 cells [6]): did not elicit significant turn-on response | RNR tyrosyl radical EPR signal ([7]; 1 h): decrease in RNR signal amplitude | IC50 [8]: 30.91 ± 0.02 µM | toxicity in normal lung fibroblasts (comparison) [8]: significantly less toxic than its corresponding thiol 2c | toxicity in normal lung fibroblasts (comparison) ([8]; listed as (TC1-S)2): significantly less toxic than DFO

IC50 ([1]; 48 h exposure): 15.01 ± 0.05 µM | stability of thiol in solution ([5]; neutral buffered aqueous solution): over 6 h | IC50 [2]: 5.19 ± 0.17 µM
SMILES: S=C(NN=Cc1ccccc1S)Nc1ccccc1 [Compound 2c]
iron coordination [10]: readily coordinates Fe(II) ions | intracellular generation of ROS (DCF fluorescence) (MDA-MB-231 cells [6]): did not elicit significant turn-on response | IC50 [8]: 15.08 ± 0.02 µM
